From PubChem BioAssay (NCI)
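Test compounds were applied to cells in 96-well plates for 48 hours at 5 doses. GI50 marks 50% less growth. TGI denotes the concentration required for complete inhibition of growth.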

What was measured:
Experiment in all cases: NCI-60 cell line screen, 48 h
[1] = test system: 786-0 renal
[2] = test system: A498 renal
[3] = test system: A549 NSCLC
[4] = test system: ACHN renal
[5] = test system: BT-549 breast
[6] = test system: CAKI-1 renal
[7] = test system: CCRF-CEM leukemia
[8] = test system: COLO 205 colon
[9] = test system: DU-145 prostate
[10] = test system: EKVX NSCLC
[11] = test system: HCC-2998 colon
[12] = test system: HCT-116 colon
[13] = test system: HCT-15 colon
[14] = test system: HL-60(TB) leukemia
[15] = test system: HOP-62 NSCLC
[16] = test system: HOP-92 NSCLC
[17] = test system: HS 578T breast
[18] = test system: HT29 colon
[19] = test system: IGROV1 ovarian
[20] = test system: K-562 leukemia
[21] = test system: KM12 colon
[22] = test system: LOX IMVI melanoma
[23] = test system: M14 melanoma
[24] = test system: MALME-3M melanoma
[25] = test system: MCF7 breast
[26] = test system: MDA-MB-231 breast
[27] = test system: MDA-MB-435
[28] = test system: MDA-MB-468 breast
[29] = test system: MOLT-4 leukemia
[30] = test system: NCI-H226 lung
[31] = test system: NCI-H23 lung
[32] = test system: NCI-H460 lung
[33] = test system: NCI/ADR-RES ovarian
[34] = test system: OVCAR-3 ovarian
[35] = test system: OVCAR-4 ovarian
[36] = test system: OVCAR-5 ovarian
[37] = test system: OVCAR-8 ovarian
[38] = test system: PC-3 prostate
[39] = test system: RPMI-8226 leukemia
[40] = test system: RXF 393 renal
[41] = test system: SF-268 CNS
[42] = test system: SF-295 CNS
[43] = test system: SF-539 CNS
[44] = test system: SK-MEL-2 melanoma
[45] = test system: SK-MEL-28 melanoma
[46] = test system: SK-MEL-5 melanoma
[47] = test system: SK-OV-3 ovarian
[48] = test system: SN12C renal
[49] = test system: SNB-19 CNS
[50] = test system: SNB-75 CNS
[51] = test system: SR leukemia
[52] = test system: SW-620 colon
[53] = test system: T-47D breast
[54] = test system: TK-10 renal
[55] = test system: U251 CNS
[56] = test system: UACC-257 melanoma
[57] = test system: UACC-62 melanoma
[58] = test system: UO-31 renal
[59] = test system: NCI-H522 lung

FC(F)(F)c1cc2c(Cl)ncnc2n1CCN1CCOCC1
GI50 [1]: 37 µM | TGI [1]: > 100 µM | GI50 [2]: > 100 µM | TGI [2]: > 100 µM | GI50 [3]: > 100 µM | TGI [3]: > 100 µM | GI50 [4]: 7.65 µM | TGI [4]: > 100 µM | GI50 [5]: 13.6 µM | TGI [5]: 28.2 µM | GI50 [6]: 27.6 µM | TGI [6]: > 100 µM | GI50 [7]: 16.6 µM | TGI [7]: > 100 µM | GI50 [8]: 26.4 µM | TGI [8]: > 100 µM | GI50 [9]: 28.9 µM | TGI [9]: > 100 µM | GI50 [10]: 17 µM | TGI [10]: 94.6 µM | GI50 [11]: 2.23 µM | TGI [11]: 5.11 µM | GI50 [12]: 4.63 µM | TGI [12]: > 100 µM | GI50 [13]: 3.3 µM | TGI [13]: 17.7 µM | GI50 [14]: 2.09 µM | TGI [14]: 5.97 µM | GI50 [15]: 38.9 µM | TGI [15]: > 100 µM | GI50 [16]: 19 µM | TGI [16]: 59.8 µM | GI50 [17]: 16.5 µM | TGI [17]: 59 µM | GI50 [18]: 27.3 µM | TGI [18]: > 100 µM | GI50 [19]: 2.54 µM | TGI [19]: 7.67 µM | GI50 [20]: 3.05 µM | TGI [20]: 18.7 µM | GI50 [21]: 35.5 µM | TGI [21]: > 100 µM | GI50 [22]: 1.75 µM | TGI [22]: 3.4 µM | GI50 [23]: 11.6 µM | TGI [23]: 36 µM | GI50 [24]: 22.1 µM | TGI [24]: 67.3 µM | GI50 [25]: 25 µM | TGI [25]: > 100 µM | GI50 [26]: 4.36 µM | TGI [26]: 18.3 µM | GI50 [27]: 13.2 µM | TGI [27]: 29.3 µM | GI50 [28]: 2.73 µM | TGI [28]: 10.4 µM | GI50 [29]: 5.71 µM | TGI [29]: 29 µM | GI50 [30]: 99 µM | TGI [30]: > 100 µM | GI50 [31]: 17.9 µM | TGI [31]: 74.4 µM | GI50 [32]: 23.2 µM | TGI [32]: > 100 µM | GI50 [33]: 30.5 µM | TGI [33]: > 100 µM | GI50 [34]: 19.4 µM | TGI [34]: 43.7 µM | GI50 [35]: 33 µM | TGI [35]: > 100 µM | GI50 [36]: > 100 µM | TGI [36]: > 100 µM | GI50 [37]: 8.45 µM | TGI [37]: 29.4 µM | GI50 [38]: 11.3 µM | TGI [38]: 36.6 µM | GI50 [39]: 31.9 µM | TGI [39]: > 100 µM | GI50 [40]: 14.9 µM | TGI [40]: 40.6 µM | GI50 [41]: 14.8 µM | TGI [41]: 33.8 µM | GI50 [42]: 24.7 µM | TGI [42]: > 100 µM | GI50 [43]: 18.1 µM | TGI [43]: 42.2 µM | GI50 [44]: 17.4 µM | TGI [44]: 33.4 µM | GI50 [45]: 13.6 µM | TGI [45]: 32.9 µM | GI50 [46]: 13 µM | TGI [46]: 29.7 µM | GI50 [47]: > 100 µM | TGI [47]: > 100 µM | GI50 [48]: 19.7 µM | TGI [48]: > 100 µM | GI50 [49]: 15.3 µM | TGI [49]: 32.9 µM | GI50 [50]: 10.1 µM | TGI [50]: 22.4 µM | GI50 [51]: 2.85 µM | TGI [51]: 12.6 µM | GI50 [52]: 10.5 µM | TGI [52]: 56.1 µM | GI50 [53]: 38.8 µM | TGI [53]: > 100 µM | GI50 [54]: > 100 µM | TGI [54]: > 100 µM | GI50 [55]: 14.8 µM | TGI [55]: 38.8 µM | GI50 [56]: 10.5 µM | TGI [56]: 30.2 µM | GI50 [57]: 10.8 µM | TGI [57]: 32.5 µM | GI50 [58]: 2.53 µM | TGI [58]: 8.99 µM

CCC[Se]C(=O)c1ccc(C(=O)[Se]CCC)s1
GI50 [1]: 0.172 µM | TGI [1]: 2.25 µM | GI50 [2]: 0.0635 µM | TGI [2]: 0.917 µM | GI50 [3]: < 0.01 µM | TGI [3]: 0.085 µM | GI50 [4]: 0.11 µM | TGI [4]: 1.22 µM | GI50 [6]: < 0.0112 µM | TGI [6]: 0.175 µM | GI50 [7]: 1.66 µM | TGI [7]: 16.1 µM | GI50 [8]: 0.639 µM | TGI [8]: 2.1 µM | GI50 [9]: 0.0955 µM | TGI [9]: 1.3 µM | GI50 [10]: < 0.0246 µM | TGI [10]: 0.0821 µM | GI50 [11]: 0.239 µM | TGI [11]: 1.84 µM | GI50 [13]: 0.0546 µM | TGI [13]: 0.217 µM | GI50 [14]: < 0.01 µM | TGI [14]: 0.662 µM | GI50 [15]: < 0.012 µM | TGI [15]: 0.0633 µM | GI50 [16]: < 0.0189 µM | GI50 [17]: < 0.01 µM | TGI [17]: 0.411 µM | GI50 [18]: < 0.01 µM | TGI [18]: 0.112 µM | GI50 [19]: < 0.0131 µM | TGI [19]: 0.234 µM | GI50 [20]: 0.0414 µM | TGI [20]: 21.4 µM | GI50 [21]: 0.0276 µM | TGI [21]: 1.3 µM | GI50 [22]: < 0.0131 µM | TGI [22]: < 0.0346 µM | GI50 [23]: < 0.01 µM | TGI [23]: < 0.0211 µM | GI50 [24]: < 0.0352 µM | TGI [24]: 0.118 µM | GI50 [25]: < 0.01 µM | TGI [25]: 0.17 µM | GI50 [26]: < 0.01 µM | TGI [26]: < 0.02 µM | GI50 [27]: < 0.01 µM | TGI [27]: 0.0199 µM | GI50 [28]: < 0.018 µM | TGI [28]: 0.075 µM | GI50 [29]: < 0.01 µM | TGI [29]: 5.1 µM | GI50 [31]: 0.0197 µM | TGI [31]: 0.114 µM | GI50 [32]: < 0.01 µM | TGI [32]: 0.0104 µM | GI50 [59]: 0.943 µM | TGI [59]: 2.77 µM | GI50 [33]: < 0.01 µM | GI50 [34]: 0.103 µM | TGI [34]: 0.37 µM | GI50 [35]: 2.87 µM | TGI [35]: 30 µM | GI50 [36]: < 0.0162 µM | TGI [36]: 0.455 µM | GI50 [37]: < 0.01 µM | TGI [37]: 0.0457 µM | GI50 [38]: 0.0224 µM | TGI [38]: 2.89 µM | GI50 [39]: 0.3 µM | TGI [39]: 2 µM | GI50 [40]: < 0.01 µM | TGI [40]: 0.0644 µM | GI50 [41]: < 0.011 µM | TGI [41]: 0.0675 µM | GI50 [42]: < 0.0144 µM | TGI [42]: < 0.0385 µM | GI50 [43]: < 0.0107 µM | TGI [43]: < 0.0218 µM | GI50 [44]: 0.0408 µM | TGI [44]: 1.14 µM | GI50 [45]: < 0.01 µM | TGI [45]: 0.0294 µM | GI50 [46]: < 0.0491 µM | TGI [46]: 0.159 µM | GI50 [47]: 0.0395 µM | TGI [47]: 0.837 µM | GI50 [48]: < 0.01 µM | GI50 [49]: < 0.01 µM | TGI [49]: 0.131 µM | GI50 [50]: < 0.0336 µM | TGI [50]: 3.07 µM | GI50 [51]: 0.0386 µM | TGI [51]: 10.3 µM | GI50 [52]: 0.0573 µM | TGI [52]: 0.32 µM | GI50 [53]: 1.03 µM | TGI [53]: 10.7 µM | GI50 [54]: 0.121 µM | TGI [54]: 1.32 µM | GI50 [55]: < 0.0106 µM | TGI [55]: 0.139 µM | GI50 [56]: 0.0587 µM | TGI [56]: 1.16 µM | GI50 [57]: 0.0225 µM | TGI [57]: 0.556 µM | GI50 [58]: < 0.02 µM | TGI [58]: 0.341 µM
